In ChEMBL document CHEMBL4811304, “Design, synthesis and biological evaluation of dual mTOR/HDAC6 inhibitors in MDA-MB-231 cells” (Bioorg Med Chem Lett, 2021):
The source made the active and inactive calls. The calls are words filed in the database; no cut-off is given here.

Experiments:
[1] = tested on: MDA-MB-231; assay: Induction of apoptosis in human MDA-MB-231 cells assessed as live cells at 20 uM by annexin V/propidium iodide staining-based flow cytometry analysis (reference value: 96.7 %); format: functional
[2] = tested on: MDA-MB-231; assay: Induction of apoptosis in human MDA-MB-231 cells assessed as early apoptotic cells at 20 uM by annexin V/propidium iodide staining-based flow cytometry analysis (reference value: 0.69 %); format: functional
[3] = target: T1, Serine/threonine-protein kinase mTOR (Homo sapiens, UniProt P42345); assay: Inhibition of mTOR (unknown origin) at 0.5 uM relative to control
[4] = tested on: MDA-MB-231; assay: Induction of apoptosis in human MDA-MB-231 cells assessed as early apoptotic cells at 5 uM by annexin V/propidium iodide staining-based flow cytometry analysis (reference value: 0.69 %); format: functional
[5] = target: T2, Protein deacetylase HDAC6 (Homo sapiens) (UniProt Q9UBN7); assay: Binding affinity to HDAC6 in human MDA-MB-231 cells assessed as increase in thermal stability at 10 uM measured at 6 hrs by CETSA; format: cell-based
T2 sequence (whole entry): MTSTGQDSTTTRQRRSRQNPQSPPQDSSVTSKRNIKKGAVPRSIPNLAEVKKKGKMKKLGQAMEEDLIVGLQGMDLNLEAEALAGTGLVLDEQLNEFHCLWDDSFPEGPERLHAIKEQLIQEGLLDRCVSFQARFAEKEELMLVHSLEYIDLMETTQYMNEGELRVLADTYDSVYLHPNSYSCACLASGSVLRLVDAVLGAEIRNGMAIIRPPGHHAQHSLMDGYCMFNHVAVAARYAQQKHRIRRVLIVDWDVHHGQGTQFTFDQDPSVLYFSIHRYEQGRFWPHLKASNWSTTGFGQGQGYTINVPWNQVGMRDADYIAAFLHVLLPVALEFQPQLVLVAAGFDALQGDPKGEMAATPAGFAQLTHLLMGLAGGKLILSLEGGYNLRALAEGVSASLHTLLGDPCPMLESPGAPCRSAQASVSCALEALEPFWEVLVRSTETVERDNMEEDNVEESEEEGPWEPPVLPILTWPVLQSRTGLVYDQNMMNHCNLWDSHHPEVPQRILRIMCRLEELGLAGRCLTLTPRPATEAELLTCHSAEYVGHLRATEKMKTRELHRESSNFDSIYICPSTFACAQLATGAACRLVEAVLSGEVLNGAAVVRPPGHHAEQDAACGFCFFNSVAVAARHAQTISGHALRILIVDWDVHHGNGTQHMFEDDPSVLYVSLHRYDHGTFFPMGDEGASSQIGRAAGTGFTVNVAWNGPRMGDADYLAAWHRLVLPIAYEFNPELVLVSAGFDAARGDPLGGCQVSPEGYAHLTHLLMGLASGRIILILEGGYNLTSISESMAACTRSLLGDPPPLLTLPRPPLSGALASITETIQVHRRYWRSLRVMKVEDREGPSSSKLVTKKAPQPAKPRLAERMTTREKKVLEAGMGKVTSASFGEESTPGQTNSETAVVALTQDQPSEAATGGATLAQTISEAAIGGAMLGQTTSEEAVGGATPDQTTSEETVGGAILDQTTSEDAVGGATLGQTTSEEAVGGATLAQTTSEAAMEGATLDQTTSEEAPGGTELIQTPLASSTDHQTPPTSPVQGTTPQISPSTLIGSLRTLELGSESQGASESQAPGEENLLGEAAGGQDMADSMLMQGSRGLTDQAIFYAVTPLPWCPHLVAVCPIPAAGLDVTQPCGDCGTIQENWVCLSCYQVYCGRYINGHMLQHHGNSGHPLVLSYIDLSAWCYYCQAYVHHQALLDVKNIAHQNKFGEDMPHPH

[6] = tested on: MDA-MB-231; assay: Inhibition of cell migration in human MDA-MB-231 cells assessed as increase in E-cadherin expression at 5 to 20 uM after 48 hrs by Western blot analysis; format: functional, cell-based; conditions: dose 5-20 µM
[7] = target: T3, Histone deacetylase 1 (Homo sapiens, UniProt Q13547); assay: Binding affinity to HDAC1 in human MDA-MB-231 cells assessed as increase in thermal stability at 10 uM measured at 6 hrs by CETSA; format: cell-based
[8] = target: Histone deacetylase 2 (Homo sapiens, UniProt Q92769); assay: Binding affinity to HDAC2 in human MDA-MB-231 cells assessed as increase in thermal stability at 10 uM measured at 6 hrs by CETSA; format: cell-based
[9] = tested on: MDA-MB-231; assay: Induction of autophagy in human MDA-MB-231 cells transfected with GFP-LC3 assessed as decrease in SQSTM1/p62 expression at 5 to 20 uM after 48 hrs by Western blot analysis; format: functional, cell-based; conditions: dose 5-20 µM
[10] = tested on: MDA-MB-231; assay: Induction of apoptosis in human MDA-MB-231 cells by annexin V/propidium iodide staining-based flow cytometry analysis; format: functional, cell-based; conditions: dose 5-20 µM
[11] = target: T2, Protein deacetylase HDAC6 (Homo sapiens); assay: Inhibition of HDAC6 in human MDA-MB-231 cells assessed as increase in acetylated lysine at 5 to 20 uM by Western blot analysis; format: cell-based; conditions: dose 5-20 µM
[12] = tested on: MDA-MB-468; assay: Antiproliferative activity against human MDA-MB-468 cells measured after 48 hrs; format: functional, cell-based; conditions: MDA-MB-468, 48 h
[13] = tested on: MDA-MB-231; assay: Induction of apoptosis in human MDA-MB-231 cells assessed as late apoptotic cells at 20 uM by annexin V/propidium iodide staining-based flow cytometry analysis (reference value: 2.34 %); format: functional
[14] = tested on: MDA-MB-231; assay: Induction of apoptosis in human MDA-MB-231 cells assessed as increase in caspase 3 cleavage at 5 to 20 uM by Western blot analysis; format: functional, cell-based; conditions: dose 5-20 µM
[15] = target: T4, Histone deacetylase 3 (Homo sapiens, UniProt O15379); assay: Inhibition of HDAC3 (unknown origin)
[16] = target: T1, Serine/threonine-protein kinase mTOR; assay: Inhibition of mTOR (unknown origin)
[17] = tested on: MDA-MB-231; assay: Induction of autophagy in human MDA-MB-231 cells transfected with GFP-LC3 assessed as increase in LC3II level at 5 to 20 uM after 48 hrs by Western blot analysis; format: functional, cell-based; conditions: dose 5-20 µM
[18] = target: T3, Histone deacetylase 1; assay: Inhibition of HDAC1 (unknown origin)
[19] = target: T4, Histone deacetylase 3; assay: Binding affinity to HDAC3 in human MDA-MB-231 cells assessed as increase in thermal stability at 10 uM measured at 6 hrs by CETSA; format: cell-based
[20] = Solubility of the compound; format: physicochemical
[21] = tested on: MDA-MB-231; assay: Antiproliferative activity against human MDA-MB-231 cells measured after 48 hrs; format: functional, cell-based; conditions: MDA-MB-231, 48 h

T4 sequence (O15379 whole entry): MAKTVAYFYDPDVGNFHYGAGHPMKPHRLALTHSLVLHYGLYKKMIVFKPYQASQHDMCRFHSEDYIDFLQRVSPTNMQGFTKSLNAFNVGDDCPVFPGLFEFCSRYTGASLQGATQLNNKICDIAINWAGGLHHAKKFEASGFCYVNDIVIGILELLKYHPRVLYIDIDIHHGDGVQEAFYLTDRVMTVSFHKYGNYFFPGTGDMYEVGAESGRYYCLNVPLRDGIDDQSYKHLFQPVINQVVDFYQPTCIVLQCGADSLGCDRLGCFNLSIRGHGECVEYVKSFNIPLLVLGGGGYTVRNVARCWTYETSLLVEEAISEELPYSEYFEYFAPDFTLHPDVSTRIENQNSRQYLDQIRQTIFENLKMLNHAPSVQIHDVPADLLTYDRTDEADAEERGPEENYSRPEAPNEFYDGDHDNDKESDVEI
T3 sequence (Q13547 whole entry): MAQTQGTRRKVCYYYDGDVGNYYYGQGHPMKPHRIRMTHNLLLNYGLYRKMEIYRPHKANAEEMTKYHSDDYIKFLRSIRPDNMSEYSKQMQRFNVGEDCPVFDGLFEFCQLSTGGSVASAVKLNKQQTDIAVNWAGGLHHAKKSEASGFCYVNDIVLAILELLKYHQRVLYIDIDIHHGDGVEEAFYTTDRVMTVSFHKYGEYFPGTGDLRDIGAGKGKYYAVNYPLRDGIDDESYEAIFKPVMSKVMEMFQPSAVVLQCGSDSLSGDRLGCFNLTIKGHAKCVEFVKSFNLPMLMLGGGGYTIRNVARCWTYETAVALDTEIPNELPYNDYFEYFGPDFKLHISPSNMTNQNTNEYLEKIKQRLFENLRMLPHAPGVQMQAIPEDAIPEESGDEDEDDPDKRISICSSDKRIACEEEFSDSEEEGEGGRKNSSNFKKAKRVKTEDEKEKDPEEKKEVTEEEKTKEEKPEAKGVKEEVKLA
Histone deacetylase 2, sequence (Q92769 whole entry): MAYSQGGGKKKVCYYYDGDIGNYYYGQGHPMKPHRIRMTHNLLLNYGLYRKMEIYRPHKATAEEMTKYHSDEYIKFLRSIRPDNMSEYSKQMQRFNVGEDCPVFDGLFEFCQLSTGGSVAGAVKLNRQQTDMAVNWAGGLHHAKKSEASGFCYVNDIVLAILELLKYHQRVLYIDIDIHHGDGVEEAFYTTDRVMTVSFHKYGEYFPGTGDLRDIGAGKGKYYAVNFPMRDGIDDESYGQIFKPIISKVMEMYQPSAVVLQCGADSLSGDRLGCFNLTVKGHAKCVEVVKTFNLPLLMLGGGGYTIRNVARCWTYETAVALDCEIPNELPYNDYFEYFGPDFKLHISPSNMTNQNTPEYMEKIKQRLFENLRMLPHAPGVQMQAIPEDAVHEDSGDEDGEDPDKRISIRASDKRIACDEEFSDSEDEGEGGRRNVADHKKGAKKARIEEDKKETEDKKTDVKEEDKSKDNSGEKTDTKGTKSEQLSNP

**Q.** What does the source list for `CN1CCN(c2nc(-c3ccc(C(=O)NO)cc3)nc3cc(Cl)ccc23)CC1`?
**A.** Activity [1]: 53.9%; Activity [2]: 11.3%; inhibition [3]: 91.4%; Activity [4]: 4.84%; Activity [5]: Active; inhibition [6]: Active; Activity [7]: inactive; Activity [8]: inactive; Activity [9]: Active; Activity [10]: Dose-Dependent Effect; inhibition [11]: Active; IC50 [12]: 14300 nM; Activity [13]: 34.3%; Activity [14]: Active; IC50 [15]: 414 nM; IC50 [16]: 134 nM; Activity [17]: Active; IC50 [18]: 359 nM; Activity [19]: inactive; solubility [20]: Insoluble; IC50 [21]: 8400 nM
